Laboratory results as given in patent US7935685B2, “Process for preparation of inclusion compounds between a non-steroidal anti-inflammatory drug and betacyclodextrin by microwave treatment” (Chiesi Farmaceutici S.p.A., priority 2001, dated 2011).

Assay: Dissolution rate of piroxicam from the solid phases, dispersed amount method (USP 25, NF 20)
Format: physicochemical
Conditions: 1 L distilled water, 37° C., paddle 50 rpm
Protocol: The dissolution rate of the samples under study was determined by the dispersed amount method according to the USP 25, NF 20, 2002. The test samples were introduced into vessels containing 1 L of distilled water each.
The test was conducted by maintaining the temperature of the dissolving bath at 37° C. and regulating the paddle rotation speed to 50 rpm.
The concentration of the drug in solution was determined at 2-minute intervals by spectrophotometry.
Each sample was analysed in triplicate.

With CN1C(C(=O)Nc2ccccn2)=C(O)c2ccccc2S1(=O)=O [PRX, piroxicam] the “% DISS (percentage compared with the initial dose of PRX in the sample)” value (T 0 min) was 0%, the “% DISS (percentage compared with the initial dose of PRX in the sample)” value (T 2 min) was 0.052% and the “% DISS (percentage compared with the initial dose of PRX in the sample)” value (T 4 min) was 0.245%. For the same molecule, the “% DISS (percentage compared with the initial dose of PRX in the sample)” value (T 6 min) was 0.451%, the “% DISS (percentage compared with the initial dose of PRX in the sample)” value (T 8 min) was 0.619% and the “% DISS (percentage compared with the initial dose of PRX in the sample)” value (T 10 min) was 0.851%. The “% DISS (percentage compared with the initial dose of PRX in the sample)” value (T 20 min) was 2.051%, the “% DISS (percentage compared with the initial dose of PRX in the sample)” value (T 30 min) was 3.340% and the “% DISS (percentage compared with the initial dose of PRX in the sample)” value (T 40 min) was 4.694%. For the same molecule, the “% DISS (percentage compared with the initial dose of PRX in the sample)” value (T 50 min) was 6.087% and the “% DISS (percentage compared with the initial dose of PRX in the sample)” value (T 60 min) was 7.635%.
